Counter-ions that a name gives are not always drawn.
Experiments:
Format in all cases: biochemical
[1] = target: T1, recombinant human MAO-A (monoamine oxidase-A) (Homo sapiens, UniProt P21397); assay: Activity on recombinant human MAO-A, Amplex Red method, 0.5 mM tyramine substrate; conditions: 0.5 mM tyramine substrate, read-out: Inhibitory Activity (IC50, nM) MAO-A
T1 construct: purchased Sigma-Aldrich
T1 sequence (P21397 1-527): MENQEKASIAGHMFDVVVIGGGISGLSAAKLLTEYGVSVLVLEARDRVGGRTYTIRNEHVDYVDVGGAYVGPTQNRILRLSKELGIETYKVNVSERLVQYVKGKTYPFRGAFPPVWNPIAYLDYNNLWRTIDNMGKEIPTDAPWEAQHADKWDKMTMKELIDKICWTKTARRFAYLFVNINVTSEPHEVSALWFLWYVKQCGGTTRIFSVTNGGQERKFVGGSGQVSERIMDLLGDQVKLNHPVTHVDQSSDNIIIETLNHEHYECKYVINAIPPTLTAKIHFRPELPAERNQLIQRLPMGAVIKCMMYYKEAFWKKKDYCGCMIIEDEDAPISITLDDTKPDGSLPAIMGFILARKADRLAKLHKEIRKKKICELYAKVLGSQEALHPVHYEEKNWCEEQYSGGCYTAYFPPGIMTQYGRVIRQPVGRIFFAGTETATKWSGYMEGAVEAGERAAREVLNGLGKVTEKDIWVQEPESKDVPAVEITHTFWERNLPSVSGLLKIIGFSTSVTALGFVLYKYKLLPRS
Method in brief: (§1)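 Enzyme in pH 7.4 phosphate buffer; 30 min, 37° C with compound (DMSO <1%); start with 200 uM Amplex Red + 1 U/mL HRP + tyramine 0.5 mM (MAO-A) or benzylamine 1 mM (MAO-B); kinetic read ex 544/em 590, 1-2 h; % rate decrease vs DMSO control → IC50, 4-parameter fit.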

[2] = target: T2, recombinant human DAO (diamine oxidase) (Homo sapiens, UniProt P19801); assay: Activity on recombinant human DAO, Amplex Red method, 1 mM putrescine substrate; conditions: recombinant human DAO, 1 mM putrescine substrate; read-out: Inhibitory Activity (IC50, nM) DAO
T2 construct: purchased R&D systems
T2 sequence (P19801 20-751): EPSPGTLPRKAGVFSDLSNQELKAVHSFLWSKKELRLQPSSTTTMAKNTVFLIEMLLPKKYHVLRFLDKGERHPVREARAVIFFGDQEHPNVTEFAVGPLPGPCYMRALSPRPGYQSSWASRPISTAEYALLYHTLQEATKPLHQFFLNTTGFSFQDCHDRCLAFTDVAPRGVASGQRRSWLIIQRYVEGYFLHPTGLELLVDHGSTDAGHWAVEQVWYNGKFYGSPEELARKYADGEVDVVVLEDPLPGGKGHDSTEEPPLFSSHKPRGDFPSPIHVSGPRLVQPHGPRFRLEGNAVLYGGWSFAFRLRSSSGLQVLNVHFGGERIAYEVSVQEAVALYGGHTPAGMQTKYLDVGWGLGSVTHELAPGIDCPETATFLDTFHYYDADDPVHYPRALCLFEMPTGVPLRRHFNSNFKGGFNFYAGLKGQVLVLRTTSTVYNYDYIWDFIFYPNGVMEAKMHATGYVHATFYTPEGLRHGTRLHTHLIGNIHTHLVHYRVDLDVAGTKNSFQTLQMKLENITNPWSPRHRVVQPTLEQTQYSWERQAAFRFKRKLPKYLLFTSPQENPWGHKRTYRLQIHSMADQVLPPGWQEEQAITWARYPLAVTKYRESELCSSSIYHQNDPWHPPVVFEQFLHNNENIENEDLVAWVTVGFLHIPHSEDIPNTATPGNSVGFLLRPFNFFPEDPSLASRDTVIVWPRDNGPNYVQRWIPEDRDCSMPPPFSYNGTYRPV
Method in brief: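 Inhibition of recombinant human DAO (diamine oxidase, R&D systems) was assessed with the Amplex Red Hydrogen Peroxide Assay Kit. Hydrogen peroxide produced from 1 mM putrescine was detected through an HRP-coupled reaction that converts Amplex Red into fluorescent resorufin, read at 544 nm excitation and 590 nm emission. IC50 values came from four-parameter logistic fits in GraphPad Prism.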

[3] = target: T3, recombinant human MAO-B (monoamine oxidase-B) (Homo sapiens, UniProt P27338); assay: Activity on recombinant human MAO-B, Amplex Red method, 1 mM benzylamine substrate; conditions: 1 mM benzylamine substrate, read-out: Inhibitory Activity (IC50, nM) MAO-B
T3 construct: purchased Sigma-Aldrich
T3 sequence (P27338 1-520): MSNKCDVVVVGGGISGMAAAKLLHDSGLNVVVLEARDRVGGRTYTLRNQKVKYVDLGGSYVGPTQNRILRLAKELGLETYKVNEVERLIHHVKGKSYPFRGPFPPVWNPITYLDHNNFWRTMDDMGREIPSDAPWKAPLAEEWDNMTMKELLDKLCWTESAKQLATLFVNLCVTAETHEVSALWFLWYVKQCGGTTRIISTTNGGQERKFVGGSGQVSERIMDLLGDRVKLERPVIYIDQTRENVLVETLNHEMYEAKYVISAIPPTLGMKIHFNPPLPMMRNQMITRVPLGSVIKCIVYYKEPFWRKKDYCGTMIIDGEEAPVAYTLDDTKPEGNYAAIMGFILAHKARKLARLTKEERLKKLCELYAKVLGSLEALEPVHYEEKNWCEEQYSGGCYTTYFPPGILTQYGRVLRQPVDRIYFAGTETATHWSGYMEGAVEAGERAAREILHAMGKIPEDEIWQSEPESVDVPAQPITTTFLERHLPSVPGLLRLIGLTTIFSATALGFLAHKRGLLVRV
Method in brief: as §1

[4] = target: T4, recombinant human VAP-1 (Homo sapiens, UniProt Q16853); assay: Activity on recombinant human VAP-1, Amplex Red HRP-coupled hydrogen peroxide assay, benzylamine substrate; conditions: recombinant human VAP-1, benzylamine substrate; read-out: Inhibitory Activity (IC50, nM) human VAP-1
T4 construct: purchased R&D systems
T4 sequence (Q16853 1-763): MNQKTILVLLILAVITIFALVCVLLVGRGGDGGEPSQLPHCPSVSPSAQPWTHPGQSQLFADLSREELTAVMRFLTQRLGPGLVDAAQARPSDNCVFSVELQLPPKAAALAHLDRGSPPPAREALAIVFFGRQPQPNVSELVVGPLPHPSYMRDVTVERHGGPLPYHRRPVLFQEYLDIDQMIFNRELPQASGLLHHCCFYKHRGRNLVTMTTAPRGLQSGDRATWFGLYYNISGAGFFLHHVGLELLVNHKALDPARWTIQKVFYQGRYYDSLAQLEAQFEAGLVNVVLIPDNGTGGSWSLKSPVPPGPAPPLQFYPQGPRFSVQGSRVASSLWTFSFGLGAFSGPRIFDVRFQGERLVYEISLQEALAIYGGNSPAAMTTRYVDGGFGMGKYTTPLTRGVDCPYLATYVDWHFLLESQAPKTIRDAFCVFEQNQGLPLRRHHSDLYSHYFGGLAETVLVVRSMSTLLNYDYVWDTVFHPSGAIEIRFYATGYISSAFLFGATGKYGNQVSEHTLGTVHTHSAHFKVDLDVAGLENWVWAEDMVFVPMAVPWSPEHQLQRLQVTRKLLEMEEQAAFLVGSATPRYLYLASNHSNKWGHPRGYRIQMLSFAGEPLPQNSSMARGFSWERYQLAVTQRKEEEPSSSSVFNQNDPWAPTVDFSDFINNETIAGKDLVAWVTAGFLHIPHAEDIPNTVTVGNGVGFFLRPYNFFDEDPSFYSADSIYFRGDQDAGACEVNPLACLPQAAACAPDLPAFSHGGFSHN
Method in brief: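 Enzyme in 50 mM sodium phosphate (pH 7.4) is exposed to test compound for 30 min at 37 °C. Benzylamine (1 mM) with HRP and Amplex Red then starts the reaction, and the fluorescence rate, relative to a DMSO-only control, gives IC50.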

SMILES | IC50 [1] [nM] | IC50 [2] [nM] | IC50 [3] [nM] | IC50 [4] [nM]
NC/C(=C\F)Cn1ncn(-c2cc(-c3ccc4c(c3)OCCO4)ccn2)c1=O [Example 171, 2-[(2E)-2-(aminomethyl)-3-fluoroprop-2-en-1-yl]-4-[4-(2,3-dihydro-1,4-benzodioxin-6-yl)pyridin-2-yl]-2,4-dihydro-3H-1,2,4-triazol-3-one] | > 100000 | < 30 | 1540 | 0.84
NC/C(=C\F)Cn1ncn(-c2cc(-c3ccc4nonc4c3)ccn2)c1=O [Example 172, 2-[(2E)-2-(aminomethyl)-3-fluoroprop-2-en-1-yl]-4-[4-(2,1,3-benzooxadiazol-5-yl)pyridin-2-yl]-2,4-dihydro-3H-1,2,4-triazol-3-one] | > 100000 | < 30 | 9070 | 0.67
NC/C(=C\F)Cn1ncn(-c2cc(-c3ccc4sc(N)nc4c3)ccn2)c1=O [Example 173, 4-[4-(2-amino-1,3-benzothiazol-5-yl)pyridin-2-yl]-2-[(2E)-2-(aminomethyl)-3-fluoroprop-2-en-1-yl]-2,4-dihydro-3H-1,2,4-triazol-3-one] | > 100000 | 5.9 | > 10000 | 0.41
CN(C)c1cccc(-c2cccc(-n3cnn(C/C(=C/F)CN)c3=O)n2)c1 [Example 174, 2-[(2E)-2-(aminomethyl)-3-fluoroprop-2-en-1-yl]-4-{6-[3-(dimethylamino)phenyl]pyridin-2-yl}-2,4-dihydro-3H-1,2,4-triazol-3-one hydrochloride] | > 100000 | 1100 | 710 | 2.2
NC/C(=C\F)Cn1ncn(-c2cccc(-c3ccc(-c4cnon4)cc3)n2)c1=O [Example 177, 2-[(2E)-2-(aminomethyl)-3-fluoroprop-2-en-1-yl]-4-{6-[4-(1,2,5-oxadiazol-3-yl)phenyl]pyridin-2-yl}-2,4-dihydro-3H-1,2,4-triazol-3-one hydrochloride] | > 100000 | 2.6 | 1900 | 0.5
NC/C(=C\F)Cn1ncn(-c2cccc(-c3cccc(-c4noc(C5CC5)n4)c3)n2)c1=O [Example 179, 2-[(2E)-2-(aminomethyl)-3-fluoroprop-2-en-1-yl]-4-{6-[3-(5-cyclopropyl-1,2,4-oxadiazol-3-yl)phenyl]pyridin-2-yl}-2,4-dihydro-3H-1,2,4-triazol-3-one hydrochloride] | 270000 | 3.1 | 390 | 1.1
CC(C)c1nc(-c2cccc(-c3cccc(-n4cnn(C/C(=C/F)CN)c4=O)n3)c2)no1 [Example 181, 2-[(2E)-2-(aminomethyl)-3-fluoroprop-2-en-1-yl]-4-(6-{3-[5-(propan-2-yl)-1,2,4-oxadiazol-3-yl]phenyl}pyridin-2-yl)-2,4-dihydro-3H-1,2,4-triazol-3-one] | > 100000 | 2.1 | 880 | 1.9

More lines, in order of falling IC50 [1], values ahead:

IC50 [1] [nM] | IC50 [2] [nM] | IC50 [3] [nM] | IC50 [4] [nM] | SMILES
120000 | 1.4 | 180 | 2.8 | CC(C)c1nc(-c2ccc(-c3cccc(-n4cnn(C/C(=C/F)CN)c4=O)n3)cc2)no1 [Example 180, 2-[(2E)-2-(aminomethyl)-3-fluoroprop-2-en-1-yl]-4-(6-{4-[5-(propan-2-yl)-1,2,4-oxadiazol-3-yl]phenyl}pyridin-2-yl)-2,4-dihydro-3H-1,2,4-triazol-3-one]
74000 | < 10 | 5490 | 1.4 | NC/C(=C\F)Cn1ncn(-c2cccc(-c3ccc(-c4noc(C5CC5)n4)cc3)n2)c1=O [Example 178, 2-[(2E)-2-(aminomethyl)-3-fluoroprop-2-en-1-yl]-4-{6-[4-(5-cyclopropyl-1,2,4-oxadiazol-3-yl)phenyl]pyridin-2-yl}-2,4-dihydro-3H-1,2,4-triazol-3-one hydrochloride]
13000 | 350 | > 10000 | 2.5 | NC/C(=C\F)Cn1ncn(-c2cccc(-c3ccc(N4CCCC4)cc3)n2)c1=O [Example 183, 2-[(2E)-2-(aminomethyl)-3-fluoroprop-2-en-1-yl]-4-{6-[4-(pyrrolidin-1-yl)phenyl]pyridin-2-yl}-2,4-dihydro-3H-1,2,4-triazol-3-one hydrochloride]
7900 | < 30 | 3320 | 0.83 | NC/C(=C\F)Cn1ncn(-c2cccc(-c3ccc(-c4ccon4)cc3)n2)c1=O [Example 176, 2-[(2E)-2-(aminomethyl)-3-fluoroprop-2-en-1-yl]-4-{6-[4-(1,2-oxazol-3-yl)phenyl]pyridin-2-yl}-2,4-dihydro-3H-1,2,4-triazol-3-one]
1470 | < 30 | > 10000 | 0.44 | CC(=O)Nc1ccc(-c2cccc(-n3cnn(C/C(=C/F)CN)c3=O)n2)cc1 [Example 175, N-[4-(6-{1-[(2E)-2-(aminomethyl)-3-fluoroprop-2-en-1-yl]-5-oxo-1,5-dihydro-4H-1,2,4-triazol-4-yl}pyridin-2-yl)phenyl]acetamide]
